According to ChEMBL document CHEMBL6087400, “Synthesis and Biological Evaluation of New Chalcogen Semicarbazone (S, Se) and Their Azole Derivatives against Chagas Disease” (J Med Chem, 2024):
The source made the active and inactive calls. The calls are words filed in the database; no cut-off is given here.

Assays:
[1] = Selectivity index, ratio of CC50 for mouse C2C12 cells to EC50 for Trypanosoma cruzi CAI/72 intracellular amastigotes; assay type: toxicity, cell-based; conditions: read-out: Selectivity Index
[2] = target: Cruzipain (Trypanosoma cruzi) (UniProt P25779); assay: Inhibition of Trypanosoma cruzi cruzain using Z-FR-AMC as substrate measured after 10 mins relative to control
Chain of Cruzipain (Trypanosoma cruzi) (P25779 123-467 limits assumed): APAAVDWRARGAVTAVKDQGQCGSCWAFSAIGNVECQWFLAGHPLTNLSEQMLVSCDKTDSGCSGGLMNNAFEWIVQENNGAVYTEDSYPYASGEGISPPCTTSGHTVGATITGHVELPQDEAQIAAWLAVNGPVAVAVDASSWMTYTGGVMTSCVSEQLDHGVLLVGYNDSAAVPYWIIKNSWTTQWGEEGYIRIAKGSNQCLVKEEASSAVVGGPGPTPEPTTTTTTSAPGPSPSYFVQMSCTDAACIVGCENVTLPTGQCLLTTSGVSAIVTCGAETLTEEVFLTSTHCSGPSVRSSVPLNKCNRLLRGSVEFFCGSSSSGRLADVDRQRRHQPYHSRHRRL

[3] = Antioxidant activity assessed as inhibition of DPPH radical scavenging activity at 0.06 mg/ml measured after 2 hrs by absorbance based analysis relative to control; assay type: functional; set-up: scale not given: the % may be the effect or the level left
[4] = Half life in female Balb/c mouse at 50 mg/kg, po by mass spectrometry; assay type: ADME, organism-based; conditions: in vivo
[5] = Antioxidant activity assessed as inhibition of DPPH radical scavenging activity at 0.015 mg/ml measured after 2 hrs by absorbance based analysis relative to control; assay type: functional; set-up: scale not given: the % may be the effect or the level left
[6] = Antioxidant activity assessed as inhibition of DPPH radical scavenging activity at 0.03 mg/ml measured after 2 hrs by absorbance based analysis relative to control; assay type: functional; set-up: scale not given: the % may be the effect or the level left
[7] = test system: C2C12; assay: Cytotoxicity against mouse C2C12 cells assessed as reduction in cell viability at 3 uM incubated for 72 hrs by DAPI staining based microscopic analysis relative to control; assay type: toxicity; conditions: c2c12, 72 h
[8] = test system: Trypanosoma cruzi; assay: Anti-trypanosomal activity against Trypanosoma cruzi CAI/72 infected in mouse C2C12 cells at 10 uM incubated for 48 hrs relative to control; assay type: functional
[9] = test system: C2C12; assay: Cytotoxicity against mouse C2C12 cells assessed as reduction in cell viability at 10 uM incubated for 72 hrs by DAPI staining based microscopic analysis relative to control; assay type: toxicity; conditions: c2c12, 72 h
[10] = test system: C2C12; assay: Cytotoxicity against mouse C2C12 cells assessed as reduction in cell viability at 40 uM incubated for 72 hrs by DAPI staining based microscopic analysis relative to control; assay type: toxicity; conditions: c2c12, 72 h

Row | Structure (SMILES) | selectivity ratio [1] | inhibition [2] | Activity [8] | also measured
1 | C/C(=N\Nc1nc(C)c[se]1)c1ccsc1 | > 2.68 | inactive | – | –
2 | C/C(=N\Nc1nc(C)c[se]1)C12CC3CC(CC(C3)C1)C2 | – | inactive | – | –
3 | C/C(=N\Nc1nc(C)c[se]1)c1cccc([N+](=O)[O-])c1.Cl | > 32.5 | – | – | Activity [3]: 78.3%; half-life [4]: 1 h; Activity [5]: 77.3%; Activity [6]: 78%
4 | CN1CCN(C(=O)N[C@@H](Cc2ccccc2)C(=O)N[C@H](/C=C/S(=O)(=O)c2ccccc2)CCc2ccccc2)CC1 [K-777] | – | – | – | Activity [7]: > 100%
5 | C/C(=N\Nc1nc(C)c[se]1)c1cccc(Cl)c1 | > 19 | – | – | –
6 | C/C(=N\NC(N)=S)c1cccc(Cl)c1 | ~1 | – | – | –
7 | C/C(=N\NC(N)=S)c1ccc(C#N)cc1 | – | 98.8% | 31.58% | Activity [9]: > 100%
8 | C/C(=N\NC(N)=S)[C@]12CC3C[C@@H](C[C@H](C3)C1)C2 | – | 5.06% | – | –
9 | COc1ccc(/C(C)=N/Nc2nc(C)c[se]2)c(OC)c1 | – | inactive | – | –
10 | C/C(=N\NC(N)=[Se])c1ccc(F)c(F)c1 | – | – | inactive | –
11 | O=C(Cn1ccnc1[N+](=O)[O-])NCc1ccccc1 [BENZNIDAZOLE] | > 6.91 | – | – | Activity [10]: > 100%
12 | C/C(=N\Nc1nc(C)cs1)c1ccc([N+](=O)[O-])cc1 | – | – | inactive | –
13 | C/C(=N\NC(N)=[Se])c1ccc(Br)cc1 | > 13 | – | – | –
14 | COc1ccc(/C(C)=N/NC(N)=[Se])c(OC)c1 | – | – | inactive | –
15 | C/C(=N\NC(N)=S)c1ccsc1 | – | 62.8% | 10.89% | Activity [9]: > 100%
16 | C/C(=N\Nc1nc(C)cs1)c1ccc(C(F)(F)F)cc1 | – | – | inactive | –
17 | C/C(=N\NC(N)=S)C12CC3C[C@H](C1)C[C@H](C3)C2 | – | – | 38.73% | Activity [9]: > 100%
18 | COc1cccc(/C(C)=N/Nc2nc(C)c[se]2)c1 | > 3.75 | – | – | –
19 | C/C(Cc1cccc(Cl)c1)=N\NC(N)=S | > 3.42 | – | – | –
20 | O=C1O[C@H]([C@@H](O)CO)C(O)=C1O | – | – | – | Activity [3]: 80.3%; Activity [5]: 65.3%; Activity [6]: 80.3%
